The text below walks through data of publication PMC4533973, “Synthesis and Evaluation of Chloramphenicol Homodimers: Molecular Target, Antimicrobial Activity, and Toxicity against Human Cells” (PLoS ONE, 2015).

Like-named read-outs stand apart in the source and are kept apart here.

Data set [1] relates to Escherichia coli ribosomes. The arrangement: method as in earlier work. To be noted: equilibrium dialysis, cited from earlier work. On the technique in general: In equilibrium dialysis free small molecules cross a membrane that holds back macromolecules.
For a further data set, the system named is E. faecium (GRE5152). The data set is described as follows: Antibacterial activity (growth inhibition, EC50). The data set is classed as cell-based. To be noted: Enterococcus faecium. An excerpt: (§1) A.S. Mankin (University of Illinois). E. coli ΔtolC strain BL21 DE3 with impaired AcrAB-TolC, a proton-dependent MDR efflux pump causing multidrug resistance, was offered by Dr D.N. Wilson (University of Munich) and included in our study to test if this mechanism of resistance affects the efficacy of CAM dimers. […] I. Spiliopoulou (National Reference Laboratory for Staphylococci, School of Medicine, University of Patras, Greece). Finally, E. coli strain Rosetta(DE3)pLysS, containing a chloramphenicol resistant gene in the pLysS plasmid, was purchased from Novagen and was also included in our study. Briefly, S. aureus or E. coli cells (200 μl of a 0.700 OD560 preculture) containing wild-type or mutant ribosomes were added in 3.8 ml of LB (Luria-Bertani) medium and grown at 37°C in the presence or absence of CAM or CAM dimers until the optical density of the control culture (grown in the absence of drug) reached the value 0.700 at 560 nm. For E. faecium and P. aeruginosa cultures, TSB (Tryptic Soy Broth) medium was used, instead of LB medium, in order to achieve exponential doubling times between 25 and 35 minutes. From dose-response curves, the half-maximal effective concentration (EC50) for each compound and strain was estimated. EC50 represents the molar concentration of a compound that produces 50% of the maximal possible effect. The EC50 values were mathematically determined by non linear regression fitting of the observed culture optical-density values, expressed as the percentage of 0.700 (y), into Hill Equation, y=min+max−min/1+(x/EC50)^−n where min and max are the lowest and highest observed values of the culture optical density, respectively, x the concentration of the tested compound, and n the Hill coefficient that represents the largest absolute value of the curve slope. EC50 is equal to the x- value of the sigmoid’s midpoint. Fitting was performed using the Four Parameter Logistic Curve of the SigmaPlot Program Version 11.0 (Systat Software, Inc) for Exact Graphs and Data Analysis.

The test system of a further data set is MRSA (GRE2691). The data set is described as follows: Antibacterial activity (growth inhibition, EC50). The format is cell-based. To be noted: Staphylococcus aureus.
From the text: as §1

Another data set relates to MRSA (GRE2272). The data set is described as follows: Antibacterial activity (growth inhibition, EC50). To be noted: Staphylococcus aureus. The format is cell-based.
From the text: as §1

A further data set deals with S. aureus (WT). The data set can be described thus: Antibacterial activity (growth inhibition, EC50). The format is cell-based. To be noted: Staphylococcus aureus.
From the text: as §1

The test system of data set [2] is post-translocation ribosomal complex (complex C) derived from E. coli. Also on record: method as in Xaplanteri et al., [6]. To be noted: ref Xaplanteri et al., [6], cited from earlier work.
A further data set deals with P. aeruginosa (GRE5288). The data set can be described thus: Antibacterial activity (growth inhibition, EC50). The format is cell-based, Pseudomonas aeruginosa. To be noted: for EC50: Pseudomonas aeruginosa.
From the text: as §1

In the next data set the target is ribosome. Also on record: method as in PMID 14654696. To be noted: read-out: K i, cryptic low-affinity site (entrance to the exit tunnel); cited from earlier work.
Another data set relates to Jurkat cells. The data set is described as follows: Toxicity assays in Jurkat cells (cell counting, necrosis and apoptosis by flow cytometry). To be noted: 60 μM; flow cytometry. The data set is classed as cell-based, Human. As to the method: Fig 8 Toxicity assays in Jurkat cells. Jurkat cells were adjusted to 1×10^9 cells/L in RPMI-1640 medium containing 1% Penicillin/Streptomycin and 10% fetal bovine serum. The cells were grown in triplicate in the presence or absence of compound 5 at the indicated concentrations for 4 days at 37°C, under a humidified 5% CO2 atmosphere. CAM was used as a reference compound. For cell necrosis and apoptosis assays, samples (10^6 cells) were collected daily and determined by flow cytometry. Apoptotic and necrotic cells were expressed as a percentage of total cells.
Human leukemic cell lines, HS-Sultan (Burkitt’s lymphoma), Jurkat (T-cell acute lymphoblastic leukemia), and U937 (histiocytic lymphoma), were adjusted to 1×10^9 cells/l in RPMI-1640 medium supplemented with 10% fetal bovine serum and 1% penicillin/streptomycin. The cells were grown in triplicate in the absence (control cultures) or presence of CAM or CAM dimers for 4 days at 37°C, under a humidified 5% CO2 atmosphere. The medium was changed daily; CAM or CAM dimer addition was repeated after medium change. Aliquots were collected daily and counted in a CELL-DYN 3700 Hematology Analyzer. For cell necrosis and apoptosis assays, samples (10^6 cells) were collected and determined using the Annexin V-PE Apoptosis Detection Kit I (BD Pharmingen) for flow cytometry, according to the manufacturers’ instructions. Flow cytometry data were analyzed using the FlowJo flow cytometry analysis software. Necrotic and apoptotic cells were expressed as a percentage of total cells.

Data set [3] deals with E. coli Rosetta(DE3)pLysS. The data set can be described thus: Antibacterial activity (growth inhibition, EC50). The data set is classed as cell-based, Escherichia coli. As to conditions: Escherichia coli.
From the text: as §1

The next data set relates to E. coli (WT). The data set is described as follows: Antibacterial activity (growth inhibition, EC50). The data set is classed as cell-based, Escherichia coli. To be noted: for EC50: Escherichia coli, LB medium, 37°C, OD560; for EC50(cell growth)/IC50(puro): wild-type E. coli, IC50(puro) calculated from Ki* at 2 mM puromycin.
From the text: as §1

In another data set the test system is E. coli (A2058G). The data set can be described thus: Antibacterial activity (growth inhibition, EC50). The data set is classed as cell-based, Escherichia coli. To be noted: Escherichia coli.
From the text: as §1

A further data set concerns E. coli (ΔtolC). The data set is described as follows: Antibacterial activity (growth inhibition, EC50). The format is cell-based, Escherichia coli. To be noted: for EC50: Escherichia coli, BL21-DE3.
From the text: as §1

In another data set the test system is E. coli (A2503C). The data set is described as follows: Antibacterial activity (growth inhibition, EC50). The format is cell-based, Escherichia coli. To be noted: Escherichia coli.
From the text: as §1

The test system of data set [4] is post-translocation ribosomal complex (complex C) derived from E. coli. The data set is described as follows: Inhibition of peptide-bond formation (puromycin reaction, AcPhe-puromycin synthesis). The data set is classed as biochemical. To be noted: for Ki: 25°C, buffer A. As to the method:
The inhibitory effect of CAM dimers on peptide-bond formation was studied using the puromycin reaction, a model reaction between puromycin and a post-translocation ribosomal complex (complex C) derived from E. coli. Since puromycin, a pseudo-substrate of PTase which binds to the A-site of the catalytic center, was present in excess, the reaction obeyed first-order kinetics. The first-order rate constant, k obs, at each concentration of puromycin was determined by fitting the x values into Eq 1, ln100/100−x=kobst (1) where x is the product AcPhe-puromycin, expressed as the percentage of complex C added in the reaction mixture, and t is the time of the reaction.
A representative time plot obtained at 400 μM puromycin, in the absence of inhibitor, is illustrated in Fig 3A (upper line) and, as expected, is characterized by linearity. However, when the reaction proceeded in the presence of a CAM dimer, e.g. compound 5, the time plots were characterized by two unique features that distinguish them from a typical kinetic behavior. […] Second, the slopes of both progress curves varied as a function of the inhibitor concentration (Fig 3A, four lower curves). […] These kinetic results are consistent with compound 5 operating through an induced fit mechanism (Fig 3C), in which the inhibitor first binds rapidly to complex C to form the encounter complex CI, which then undergoes a slow conformational change to produce a final, tighter complex C*I. Corroborative evidence for the consistency of this model is provided by the hyperbolic shape of the equilibration plots (k eq versus [I]), in which k eq represents the apparent rate constant for the attainment of equilibrium among C, CI, and C*I (Fig 3B). If one-step mechanism of inhibition was applicable (C + I ⇄ C*I), k eq should be a linear function of [I] [27]. […] Because the isomerization constant k on/k off was calculated to be 3.6, the inhibition process was finally associated with high overall inhibition of peptide-bond formation (Ki* = 0.3 μM; S1 Fig, panel C). In addition, the slow k off rate (0.64 min^-1) provided prolonged residence time for compound 5 at the ribosome, a behavior potentially predicting good efficacy in vivo [28].
The puromycin reaction, i.e. the reaction between complex C and excess puromycin (S), was carried out at 25°C in buffer A [100 mM Tris-HCl pH 7.2, 6 mM (CH3COO)2Mg, 100 mM NH4Cl and 6 mM 2-mercaptoethanol]. Under these conditions, the puromycin reaction obeys C + S ⇄KS CS→kcat C^′ + S pseudo-first-order kinetics and was analyzed as previously described.
In the presence of CAM dimers, biphasic semi-logarithmic time plots were obtained. The slope of the straight line through the origin was seen as the value of the apparent rate constant, k obs(early), at the early phase of the reaction. Similarly, the slope of the second straight line was taken as the apparent rate constant, k obs(late), at the late phase of the puromycin reaction.

[5] abbreviates: LB medium, 37°C, OD560, read-out: EC50.

On to `O=C(N[C@H](CO)[C@H](O)c1ccc([N+](=O)[O-])cc1)C(Cl)Cl` [CAM, chloramphenicol], for which the Kd in data set [1] (read-out: K D, high affinity site) is 2 µM; in [1] (read-out: K D, low affinity site) it was 200 µM. The half-maximal effective concentration (EC50) (commonly the concentration giving half of the maximal effect) in the data set on E. faecium (GRE5152) turned out to be 3.5 ± 0.3 µM; in the data set with MRSA (GRE2691) it was 12.8 ± 1.5 µM; in the data set on MRSA (GRE2272), 8.4 ± 0.7 µM; in the data set with S. aureus (WT) it was 2.9 ± 0.1 µM; in the data set on P. aeruginosa (GRE5288) it was 25.6 ± 2.2 µM; in [3], 115 ± 16.3 µM. Further, the EC50 with E. coli (WT) turned out to be 4.4 ± 0.2 µM; with E. coli (A2058G) it was 15.9 ± 1.1 µM; in the data set on E. coli (ΔtolC), 2.2 ± 0.1 µM; in the data set with E. coli (A2503C) it was 24.9 ± 2.5 µM. In addition, the Ki in data set [2] (encounter complex CI) was 3.1 ± 0.3 µM; in [2] (overall inhibition constant) it was 0.88 ± 0.07 µM; at ribosome, approximately 300 µM. In addition, the k off in [2] was 0.0165 ± 0.00067 s⁻¹. Besides, the “fold higher EC50 value than wild-type E. coli” value in the data set with P. aeruginosa (GRE5288) (P. aeruginosa versus wild-type E. coli) worked out at 6 fold. Moreover, the “apoptosis, expressed as a percentage of total cells” value in the data set with Jurkat cells is on record as “did not induce any necrosis/apoptosis effect”. Further, the necrosis result in the data set with Jurkat cells is “did not induce any necrosis/apoptosis effect”. In the data set with E. coli (WT), the “EC50(cell growth)/IC50(puro)” value is on record as 0.84 ± 0.07. In addition, in the data set with E. coli (ΔtolC) (E. coli BL21 DE3 (ΔtolC) versus wild-type E. coli), the “fold more sensitive than wild-type E. coli” value is reported as “approximately 2 fold”.

Regarding `O=C(CCCCCCCC(=O)N[C@H](CO)[C@H](O)c1ccc([N+](=O)[O-])cc1)N[C@H](CO)[C@H](O)c1ccc([N+](=O)[O-])cc1` [Compound 7, N^1,N^9-Bis((1R,2R)-1,3-dihydroxy-1-(4-nitrophenyl)propan-2-yl)nonanediamide], the melting point (usually the temperature, or range, at which the solid turns liquid) was in the range of 137 to 139 °C. The EC50 with E. faecium (GRE5152) (TSB medium, 37°C, OD560, read-out: EC50) was more than 200 µM. Further, the 50% effective concentration (EC50) in the data set with MRSA (GRE2691) (setting [5]) was more than 200 µM. For the same compound, the 50% effective concentration (EC50) with MRSA (GRE2272) (setting [5]) is more than 200 µM. The EC50 in the data set with S. aureus (WT) (setting [5]) was 72.7 ± 11.8 µM. For the same compound, the concentration giving a half-maximal response (EC50) in the data set on P. aeruginosa (GRE5288) (TSB medium, clinical isolate with MexAB-OprM and MexXY efflux, read-out: EC50) is more than 100 µM. The Ki in [4] (encounter complex CI) came out at 12 ± 1.2 µM. The k off in data set [4] (nonlinear regression of k eq) came out at 0.014 ± 0.001 s⁻¹. Besides, the Ki in [4] (overall inhibition constant (CI + C*I)) amounted to 2.8 ± 0.27 µM. For the same compound, in data set [4] (ranking by K i*), the “activity compared to CAM” value is “lower”. The same compound gave an EC50 in data set [3] of more than 200 µM. Moreover, in the data set with E. coli (WT), the 50% effective concentration (EC50) is more than 200 µM and the “EC50(cell growth)/IC50(puro)” value was more than 11.9. Besides, in the data set on E. coli (A2058G), the EC50 is more than 200 µM. This compound also yielded a concentration for a half-maximal effect (EC50) with E. coli (ΔtolC) of more than 200 µM. The compound further had a concentration giving a half-maximal response (EC50) in the data set with E. coli (A2503C) of more than 200 µM.
